# Laboratory results as given in US20130109682A1, “CYCLIC ETHER COMPOUNDS USEFUL AS KINASE INHIBITORS” (NOVARTIS AG, priority 2010, published 2013).
# Key:
# PIM2 = PIM2 (Homo sapiens, UniProt Q9P1W9); test: KinaseGlo Pim2 ATP depletion assay; format: biochemical
# Description: KinaseGlo Pim2 ATP Depletion Assay
# The activity of PIM2 is measured using a luciferase-luciferin based ATP detection reagent to quantify ATP depletion resulting from kinase-catalyzed phosphoryl transfer to a peptide substrate. Compounds to be tested are dissolved in 100% DMSO and directly distributed into white 384-well plates at 0.5 piper well. To start the reaction, 10 μl of 10 nM Pim2 kinase and 20 μM BAD peptide (RSRHSSYPAGT-OH) in assay buffer (50 mM HEPES pH 7.5, 5 mM MgCl2, 1 mM DTT, 0.05% BSA) is added into each well. After 15 minutes, 10 μl of 8 μM ATP in assay buffer is added. Final assay concentrations are 5 nM PIM2, 4 μM ATP, 10 μM BAD peptide and 2.5% DMSO. The reaction is performed until approximately 50% of the ATP is depleted, then stopped with the addition of 20 μl KinaseGlo Plus (Promega Corporation) solution. The stopped reaction is incubated for 10 minutes and the remaining ATP detected via luminescence on the Victor2 (Perkin Elmer).
# PIM3 = PIM3 (Homo sapiens, UniProt Q86V86); test: KinaseGlo Pim3 ATP depletion assay; format: biochemical
# Description: KinaseGlo Pim3 ATP Depletion Assay
# The activity of PIM3 is measured using a luciferase-luciferin based ATP detection reagent to quantify ATP depletion resulting from kinase-catalyzed phosphoryl transfer to a peptide substrate. Compounds to be tested are dissolved in 100% DMSO and directly distributed into white 384-well plates at 0.5 μl per well. To start the reaction, 10 μl of 10 nM Pim3 kinase and 200 μM BAD peptide (RSRHSSYPAGT-OH) in assay buffer (50 mM HEPES pH 7.5, 5 mM MgCl2, 1 mM DTT, 0.05% BSA) is added into each well. After 15 minutes, 10 μl of 80 μM ATP in assay buffer is added. Final assay concentrations are 5 nM […], 40 μM ATP, 100 μM BAD peptide and 2.5% DMSO. The reaction is performed until approximately 50% of the ATP is depleted, then stopped by the addition of 20 μl KinaseGlo Plus (Promega Corporation) solution. The stopped reaction is incubated for 10 minutes and the remaining ATP detected via luminescence on the Victor2 (Perkin Elmer).
# PIM1 = PIM1 (Homo sapiens, UniProt P11309); test: KinaseGlo Pim1 ATP depletion assay; format: biochemical
# Sequence of PIM1 (P11309 whole entry): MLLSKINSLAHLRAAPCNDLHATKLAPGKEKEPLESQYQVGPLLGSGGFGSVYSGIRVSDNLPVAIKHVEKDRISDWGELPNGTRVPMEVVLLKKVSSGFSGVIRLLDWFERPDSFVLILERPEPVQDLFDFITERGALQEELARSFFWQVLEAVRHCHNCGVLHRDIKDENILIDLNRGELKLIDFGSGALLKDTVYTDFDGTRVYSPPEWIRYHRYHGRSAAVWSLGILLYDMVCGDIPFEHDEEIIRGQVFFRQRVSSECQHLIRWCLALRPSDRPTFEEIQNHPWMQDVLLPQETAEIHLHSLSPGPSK
# Description: KinaseGlo Pim1 ATP Depletion Assay
# The activity of PIM1 is measured using a luciferase-luciferin based ATP detection reagent to quantify ATP depletion resulting from kinase-catalyzed phosphoryl transfer to a peptide substrate. Compounds to be tested are dissolved in 100% DMSO and directly distributed into white 384-well plates at 0.5 μA per well. To start the reaction, 10 μA of 5 nM Pim1 kinase and 80 μM BAD peptide (RSRHSSYPAGT-OH) in assay buffer (50 mM HEPES pH 7.5, 5 mM MgCl2, 1 mM DTT, 0.05% BSA) is added into each well. After 15 minutes, 10 μl of 40 μM ATP in assay buffer is added. Final assay concentrations are 2.5 nM PIM1, 20 μM ATP, 40 μM BAD peptide and 2.5% DMSO. The reaction is performed until approximately 50% of the ATP is depleted, then stopped with the addition of 20 μA KinaseGlo Plus (Promega Corporation) solution. The stopped reaction is incubated for 10 minutes and the remaining ATP detected via luminescence on the Victor2 (Perkin Elmer). […] IC50, the half maximal inhibitory concentration, represents the concentration of a test compound that is required for 50% inhibition of its target in vitro.
# [1] = system: KMS11 (human myeloma cell line); test: Cell proliferation assay (CellTiter-Glo), KMS11; format: cell-based; conditions: Homo sapiens, KMS-11; KMS11-Luc cells
# Description: KMS11 (human myeloma cell line), were cultured in IMDM supplemented with 10% FBS, sodium pyruvate and antibiotics. Cells were plated in the same medium at a density of 2000 cells per well into 96 well tissue culture plates, with outside wells vacant, on the day of assay. MMl.s (human myeloma cell line), were cultured in RPMI1640 supplemented with 10% FBS, sodium pyruvate and antibiotics. Cells were plated in the same medium at a density of 5000 cells per well into 96 well tissue culture plates, with outside wells vacant, on the day of assay.
# Test compounds supplied in DMSO were diluted into DMSO at 500 times the desired final concentrations before dilution into culture media to 2 times final concentrations. Equal volumes of 2× compounds were added to the cells in 96 well plates and incubated at 37° C. for 3 days.
# After 3 days plates were equilibrated to room temperature and equal volume of CellTiter-Glow Reagent (Promega) was added to the culture wells. The plates were agitated briefly and luminescent signal was measured with luminometer.
# Using the procedures of Cell Proliferation Assay, the EC50 concentration of indicated compounds of the examples in were determined in KMS11 cells as shown in Table 4.
# GSK3β = GSK3β (Homo sapiens, UniProt P49841); test: GSK3β ATP depletion assay; format: biochemical; conditions: read-out: GSK3b IC50
# Sequence of GSK3β (P49841 whole entry, species assumed): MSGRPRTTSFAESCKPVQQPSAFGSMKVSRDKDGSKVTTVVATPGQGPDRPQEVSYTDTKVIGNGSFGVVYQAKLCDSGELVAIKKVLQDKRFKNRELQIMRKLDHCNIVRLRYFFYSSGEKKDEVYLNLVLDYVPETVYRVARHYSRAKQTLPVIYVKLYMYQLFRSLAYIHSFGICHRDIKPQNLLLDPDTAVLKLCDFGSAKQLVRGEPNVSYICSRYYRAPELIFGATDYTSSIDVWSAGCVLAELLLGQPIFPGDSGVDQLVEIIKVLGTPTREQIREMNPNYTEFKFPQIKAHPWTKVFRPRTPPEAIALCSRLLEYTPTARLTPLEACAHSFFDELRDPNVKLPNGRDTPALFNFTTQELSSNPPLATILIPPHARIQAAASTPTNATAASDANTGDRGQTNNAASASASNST
# Description: GSK3β ATP Depletion Assay
# The activity of GSK3β is measured using a luciferase-luciferin based ATP detection reagent to quantify ATP depletion resulting from kinase-catalyzed phosphoryl transfer to a peptide substrate. Compounds to be tested are dissolved in 100% DMSO and directly distributed into white 384-well plates at 0.5 μl per well. To start the reaction, 10 μl of 10 nM GSK3B kinase and 20 μM biotinylated CREB peptide ([…](pS)YR-NH2) in assay buffer (50 mM TRIS pH 7.5, 15 mM MgCl2, 1 mM DTT, 0.1% BSA) is added into each well. After 15 minutes, 10 μl of 2 μM ATP in assay buffer is added. Final assay concentrations are 5 nM GSK3B, […], 10 μM b-CREB peptide and 2.5% DMSO. The reaction is performed until approximately 50% of the ATP is depleted, then stopped with the addition of 20 μl KinaseGlo (Promega Corporation) solution. The stopped reaction is incubated for 10 minutes and the remaining ATP is detected via luminescence on the Victor2 (Perkin Elmer).
# Sequence of PIM2 (Q9P1W9 whole entry): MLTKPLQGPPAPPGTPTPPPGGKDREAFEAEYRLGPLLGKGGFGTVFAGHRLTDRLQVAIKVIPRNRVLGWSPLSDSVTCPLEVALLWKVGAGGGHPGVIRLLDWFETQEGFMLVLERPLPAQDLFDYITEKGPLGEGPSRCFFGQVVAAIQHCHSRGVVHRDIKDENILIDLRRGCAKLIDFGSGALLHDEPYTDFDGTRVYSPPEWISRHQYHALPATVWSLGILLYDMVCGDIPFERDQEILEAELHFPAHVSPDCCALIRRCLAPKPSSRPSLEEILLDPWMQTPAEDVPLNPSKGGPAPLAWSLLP
Compound,IC50 (PIM2) [nM],IC50 (PIM3) [nM],IC50 (PIM1) [nM],EC50 [1] [nM],IC50 (GSK3β) [nM]
"C[C@H]1O[C@@H](c2ccncc2NC(=O)c2csc(-c3c(F)cccc3F)n2)[C@H](F)[C@@H](O)[C@]1(C)O (stereo in doubt) [Example 68, 2-(2,6-difluorophenyl)-N-(4-((2S,3R,4S,5S,6R)-3-fluoro-4,5-dihydroxy-5,6-dimethyltetrahydro-2H-pyran-2-yl)pyridin-3-yl)thiazole-4-carboxamide]",3390,89,6,6000,1070
"C[C@@H]1O[C@H](c2ccncc2NC(=O)c2csc(-c3c(F)cccc3F)n2)[C@@H](F)[C@H](O)[C@@]1(C)O (stereo in doubt) [Example 70, 2-(2,6-difluorophenyl)-N-(4-((2R,3S,4R,5R,6S)-3-fluoro-4,5-dihydroxy-5,6-dimethyltetrahydro-2H-pyran-2-yl)pyridin-3-yl)thiazole-4-carboxamide]",323,19,1,> 10000,331
"CC[C@]1(O)[C@H](O)C[C@H](c2ccncc2NC(=O)c2ccc(F)c(-c3c(F)cccc3F)n2)O[C@@H]1C (stereo in doubt) [Example 77, 6-(2,6-difluorophenyl)-N-(4-((2R,4R,5S,6R)-5-ethyl-4,5-dihydroxy-6-methyltetrahydro-2H-pyran-2-yl)pyridin-3-yl)-5-fluoropicolinamide]",756,236,50,6400,4890
"C[C@H]1[C@H](C)O[C@H](c2ccncc2NC(=O)c2csc(-c3c(F)cccc3F)n2)C[C@@H]1O (stereo in doubt) [Example 94, 2-(2,6-difluorophenyl)-N-(4-((2S,4S,5R,6S)-4-hydroxy-5,6-dimethyltetrahydro-2H-pyran-2-yl)pyridin-3-yl)thiazole-4-carboxamide]",246,9,1,4200,11
"C[C@H]1[C@H](O)C[C@H](c2ccncc2NC(=O)c2csc(-c3c(F)cccc3F)n2)O[C@@H]1C (stereo in doubt) [Example 95, 2-(2,6-difluorophenyl)-N-(4-((2R,4R,5S,6R)-4-hydroxy-5,6-dimethyltetrahydro-2H-pyran-2-yl)pyridin-3-yl)thiazole-4-carboxamide]",2170,80,8,> 10000,32
"C[C@H]1[C@H](C)O[C@H](c2ccncc2NC(=O)c2ccc(F)c(-c3c(F)cccc3F)n2)C[C@@H]1O (stereo in doubt) [Example 96, 6-(2,6-difluorophenyl)-5-fluoro-N-(4-((2S,4S,5R,6S)-4-hydroxy-5,6-dimethyltetrahydro-2H-pyran-2-yl)pyridin-3-yl)picolinamide]",16,3,1,3900,141
"C[C@H]1[C@H](O)C[C@H](c2ccncc2NC(=O)c2ccc(F)c(-c3c(F)cccc3F)n2)O[C@@H]1C (stereo in doubt) [Example 97, 6-(2,6-difluorophenyl)-5-fluoro-N-(4-((2R,4R,5S,6R)-4-hydroxy-5,6-dimethyltetrahydro-2H-pyran-2-yl)pyridin-3-yl)picolinamide]",263,37,5,> 10000,313

# The next lines start with the values.
IC50 (PIM2) [nM],IC50 (PIM3) [nM],IC50 (PIM1) [nM],EC50 [1] [nM],IC50 (GSK3β) [nM],Compound
99,8,1,2200,689,"CC1C(c2ccncc2NC(=O)c2ccc(F)c(-c3c(F)cccc3F)n2)OC(C)[C@H](O)C1O (stereo in doubt) [Example 66, 6-(2,6-difluorophenyl)-N-(4-((2S,3R,4S,5R,6S)-4,5-dihydroxy-3,6-dimethyltetrahydro-2H-pyran-2-yl)pyridin-3-yl)-5-fluoropicolinamide]"
300,22,4,> 10000,984,"CC1C(c2ccncc2NC(=O)c2ccc(F)c(-c3c(F)cccc3F)n2)OC(C)[C@@H](O)C1O (stereo in doubt) [Example 67, 6-(2,6-difluorophenyl)-N-(4-((2R,3S,4R,5S,6R)-4,5-dihydroxy-3,6-dimethyltetrahydro-2H-pyran-2-yl)pyridin-3-yl)-5-fluoropicolinamide]"
497,53,4,4000,1800,"C[C@H]1O[C@@H](c2ccncc2NC(=O)c2ccc(F)c(-c3c(F)cccc3F)n2)[C@H](F)[C@@H](O)[C@]1(C)O (stereo in doubt) [Example 69, 6-(2,6-difluorophenyl)-5-fluoro-N-(4-((2S,3R,4S,5S,6R)-3-fluoro-4,5-dihydroxy-5,6-dimethyltetrahydro-2H-pyran-2-yl)pyridin-3-yl)picolinamide]"
720,44,31,> 10000,854,"C[C@H]1O[C@@H](c2ccncc2NC(=O)c2ccc(F)c(-c3c(F)cccc3F)n2)[C@H](O)[C@@H](O)[C@]1(C)O (stereo in doubt) [Example 81, 6-(2,6-difluorophenyl)-5-fluoro-N-(4-((2S,3R,4R,5S,6R)-3,4,5-trihydroxy-5,6-dimethyltetrahydro-2H-pyran-2-yl)pyridin-3-yl)picolinamide]"
36,7,2,> 10000,1170,"C[C@@H]1O[C@H](c2ccncc2NC(=O)c2ccc(F)c(-c3c(F)cccc3F)n2)[C@@H](O)[C@H](O)[C@@]1(C)O (stereo in doubt) [Example 82, 6-(2,6-difluorophenyl)-5-fluoro-N-(4-((2R,3S,4S,5R,6S)-3,4,5-trihydroxy-5,6-dimethyltetrahydro-2H-pyran-2-yl)pyridin-3-yl)picolinamide]"
